Source: US20140030350A1, “Drug Delivery Systems” (BIOCOMPATIBLES UK LIMITED, priority 2011, published 2014)

Assay: UV/Vis scan of DTT effect on doxorubicin over time
Format: physicochemical
Conditions: high concentration of DTT, 17 hours
Method: Diothiothreitol (DTT) is a well known mild disulfide reducing agent and is used to maintain disulfide groups in their reduced thiol state. […] A high concentration of DTT was added to doxorubicin and was scanned at 1 hour time points using a UV/Vis spectrophotometer.

COc1cccc2c1C(=O)c1c(O)c3c(c(O)c1C2=O)C[C@@](O)(C(=O)CO)C[C@@H]3O[C@H]1C[C@H](N)[C@H](O)[C@H](C)O1 [doxorubicin]
Change to the absorbance of doxorubicin on exposure to DTT: very little change
